Molecular target: T1, TtCan1 (Thermus thermophilus, UniProt Q53W14)
T1 construct: gene TTHB155; codon-optimised synthetic gene, E. coli BL21(DE3); N-terminal His6-TwinStrep-SUMO tag removed; monomeric
T1 sequence (Q53W14 1-636): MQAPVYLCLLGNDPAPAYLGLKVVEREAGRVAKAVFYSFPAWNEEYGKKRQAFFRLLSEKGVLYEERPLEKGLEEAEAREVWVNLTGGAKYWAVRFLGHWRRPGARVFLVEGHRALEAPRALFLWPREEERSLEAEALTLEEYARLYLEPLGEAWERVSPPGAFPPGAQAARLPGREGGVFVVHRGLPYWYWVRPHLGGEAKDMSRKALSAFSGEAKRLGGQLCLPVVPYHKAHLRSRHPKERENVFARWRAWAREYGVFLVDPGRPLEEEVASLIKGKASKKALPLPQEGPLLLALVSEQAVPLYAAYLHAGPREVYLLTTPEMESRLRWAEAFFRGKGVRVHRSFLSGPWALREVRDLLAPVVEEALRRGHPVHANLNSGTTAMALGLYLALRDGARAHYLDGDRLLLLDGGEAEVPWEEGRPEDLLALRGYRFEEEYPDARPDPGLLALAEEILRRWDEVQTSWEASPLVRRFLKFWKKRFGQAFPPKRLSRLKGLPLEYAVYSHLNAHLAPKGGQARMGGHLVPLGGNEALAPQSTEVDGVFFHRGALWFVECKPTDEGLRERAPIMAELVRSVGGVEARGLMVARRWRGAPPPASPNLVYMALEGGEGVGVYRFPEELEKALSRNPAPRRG
Experiment: ssRNA cleavage, denaturing PAGE; fluorescent RNA reporters
Format: biochemical
Details: allosteric activator of ssRNase activity; 200 nM enzyme, 20 nM cA4, pH 7.8, 60 °C

Nc1ncnc2c1ncn2[C@@H]1O[C@@H]2COP(=O)(O)O[C@H]3[C@@H](O)[C@H](n4cnc5c(N)ncnc54)O[C@@H]3COP(=O)(O)O[C@H]3[C@@H](O)[C@H](n4cnc5c(N)ncnc54)O[C@@H]3COP(=O)(O)O[C@H]3[C@@H](O)[C@H](n4cnc5c(N)ncnc54)O[C@@H]3COP(=O)(O)O[C@H]2[C@H]1O [cA4]
ssRNA cleavage, denaturing PAGE; fluorescent RNA reporters: TtCan1 is a cA4-dependent single-stranded RNase (ssRNA) but does not cleave ssDNA
